Data as given in US20220062340A1, “IMMUNOTHERAPEUTIC METHODS AND COMPOSITIONS” (KING'S COLLEGE LONDON, priority 2018, published 2022).

What was measured:
RARβ = target: T1, RARβ (Homo sapiens, UniProt P10826); experiment: Selectivity profile against human RARs (RARβ); format: biochemical
T1 sequence (P10826 1-455): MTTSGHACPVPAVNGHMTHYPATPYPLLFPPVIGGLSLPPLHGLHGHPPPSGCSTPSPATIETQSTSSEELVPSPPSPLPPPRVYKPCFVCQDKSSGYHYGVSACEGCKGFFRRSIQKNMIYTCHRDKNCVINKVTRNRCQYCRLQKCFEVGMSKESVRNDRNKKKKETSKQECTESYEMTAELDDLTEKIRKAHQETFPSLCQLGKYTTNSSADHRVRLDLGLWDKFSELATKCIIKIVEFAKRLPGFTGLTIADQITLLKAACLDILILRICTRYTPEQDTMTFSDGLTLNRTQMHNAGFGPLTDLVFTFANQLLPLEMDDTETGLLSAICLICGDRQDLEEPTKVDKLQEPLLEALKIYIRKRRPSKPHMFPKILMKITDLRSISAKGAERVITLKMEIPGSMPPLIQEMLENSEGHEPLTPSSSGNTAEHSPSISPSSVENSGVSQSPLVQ

RAR γ = target: T2, RAR γ (Homo sapiens, UniProt P13631); experiment: Selectivity profile against human RARs (RARγ); format: biochemical
T2 sequence (P13631 1-454): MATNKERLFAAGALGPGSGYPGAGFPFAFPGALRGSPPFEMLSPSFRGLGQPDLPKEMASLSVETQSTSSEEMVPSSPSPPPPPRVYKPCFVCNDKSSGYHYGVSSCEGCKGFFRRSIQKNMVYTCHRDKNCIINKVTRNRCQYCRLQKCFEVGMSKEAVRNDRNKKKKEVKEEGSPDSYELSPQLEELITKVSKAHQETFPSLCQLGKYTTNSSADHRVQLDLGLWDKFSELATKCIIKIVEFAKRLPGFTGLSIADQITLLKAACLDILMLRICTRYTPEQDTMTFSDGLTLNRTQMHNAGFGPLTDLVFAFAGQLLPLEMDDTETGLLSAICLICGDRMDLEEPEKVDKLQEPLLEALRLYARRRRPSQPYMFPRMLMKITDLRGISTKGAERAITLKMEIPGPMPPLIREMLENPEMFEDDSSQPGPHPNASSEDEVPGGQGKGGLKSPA

integrin β7 on Tregs = experiment: Dose response of integrin β7 induction on expanded Tregs; format: cell-based; conditions: Homo sapiens; Tregs in in vitro culture, FIG. 2c; read-out: EC50 to induce the expression of integrin β7
Protocol: FACS-sorted Treg populations were plated at 1×10^6 or 0.5×10^6 in X-VIVO-15 medium and activated with anti-CD3/anti-CD28 coated beads (Dynabeads®, Invitrogen, Paisley, UK) at 1:1 bead: cell ratio. Rapamycin was added at day 0 of culture at a final concentration of 100 nM/L +/−ATRA 1 nM/L or RAR568 1 nM/L. Next, 1,000 IU/ml recombinant human IL-2 (rhlL-2) (Proleukin®, Novartis, Camberley, UK) was added at day 5 of culture. Cells were re-stimulated every 10-12 days and expanded for a total of 24-30 days. The phenotype and suppressive ability were assessed at the end of the culture period.
Flow cytometry panels have been designed to assess the subtypes of regulatory T cells in patients with CD as well as their expression of gut homing molecules. Gating was performed based on natural populations when assessing for CD4^+CD25^highCD127low populations, as well as for CD45RA^+ Treg populations. Additionally, to minimize bias in the assessment of expression of gut homing markers and transcription factors, a fluorochrome minus one (FMO) panel was added for each marker of interest in each experiment that was performed.

Effector T cells (Teff) = experiment: Treg suppression assay (proliferation of CFSE-labelled Teff); format: cell-based, human; conditions: lowest (8:1) Teff:Treg titration, FIG. 2e
Protocol: Effector T cells (Teff) were labelled with carboxyfluorescein succinimidyl ester (CFSE, Invitrogen) according to standard protocols. Cells were washed with phosphate buffered saline (PBS) to remove excess protein. Cells were then incubated with a 1 μM/L CFSE solution in the dark at room temperature for 4 minutes. The reaction was then quenched with 9 ml of complete medium.
Teff were activated with anti-CD3/anti-CD28 micro beads at a bead: Teff ratio of 0.02:1. 1×10^5 Teff were then cultured either alone or with Tregs in serial dilutions. The ratios of Teff: Treg were 1:1, 2:1, 4:1, and 8:1. This was done in X-VIVO-15 and proliferation rates were assessed by flow cytometry after 5 days of incubation.
Percentage suppression (S) of proliferation was calculated using the following formula:
Where c=percentage of proliferating precursors in the presence of Tregs and d=percentage of proliferating precursors in the absence of Tregs.

MAdCAM-1 = experiment: In-vitro trafficking assay, MAdCAM-1 coated Ibidi flow chamber; format: cell-based, human; conditions: agonist-treated Tregs from CD patients compared to cells expanded under standard conditions
Protocol: Ibidi (Martinsreid, Germany) μ-Slides VI″ were coated with recombinant human MAdCAM-1 (R&D Systems, Minneapolis, Minn.), at a concentration of 10μg/ml and incubated overnight. Cells from two CD patients that had previously undergone ex vivo expansion under two parallel conditions (Rapa and Rapa+RAR568) and had been frozen in liquid nitrogen were defrosted and rested overnight. Rested cells were then activated with rhCCL25 (R&D systems) and passed through the coated Ibidi flow chamber at a rate of 1 dyne/cm^2. The total number of cells, as well as those rolling, adherent and crawling was quantified from six randomly selected fields of view per treatment.
In order to assess the physiological relevance of the induction of α4β7 expression by RAR568, treated and untreated Tregs from CD patients were passed through a MAdCAM-1 coated flow chamber (FIG. 10). The total number of cells adherent to the chamber, as well as their stages of rolling, adhesion and crawling, were compared to cells that were expanded under standard conditions.

## CCOc1c(Cl)cc(C(=O)Nc2ccc(C(=O)O)c(C)c2)cc1OC(C)C [RAR568]
RARβ
  selectivity for RARα over RARβ: 290 fold
RAR γ
  selectivity over RAR γ: > 13,000 fold
Integrin β7 on Tregs
  EC50: 0.01 nM
Effector T cells (Teff)
  Suppressive ability of expanded Tregs: highly suppressive even at the lowest (8:1) titration
MAdCAM-1
  total cells and cells rolling, adherent and crawling in MAdCAM-1 coated flow chamber: significantly more total cells as well as cells at each condition of migration
